We go through 21 compounds from patent publication US8952034B2, “Fused heterocyclic compounds as ion channel modulators” (Gilead Sciences, Inc., priority 2009, dated 2015).

Sequence of wild-type human cardiac sodium channel, hNav1.5 (Q14524 whole entry): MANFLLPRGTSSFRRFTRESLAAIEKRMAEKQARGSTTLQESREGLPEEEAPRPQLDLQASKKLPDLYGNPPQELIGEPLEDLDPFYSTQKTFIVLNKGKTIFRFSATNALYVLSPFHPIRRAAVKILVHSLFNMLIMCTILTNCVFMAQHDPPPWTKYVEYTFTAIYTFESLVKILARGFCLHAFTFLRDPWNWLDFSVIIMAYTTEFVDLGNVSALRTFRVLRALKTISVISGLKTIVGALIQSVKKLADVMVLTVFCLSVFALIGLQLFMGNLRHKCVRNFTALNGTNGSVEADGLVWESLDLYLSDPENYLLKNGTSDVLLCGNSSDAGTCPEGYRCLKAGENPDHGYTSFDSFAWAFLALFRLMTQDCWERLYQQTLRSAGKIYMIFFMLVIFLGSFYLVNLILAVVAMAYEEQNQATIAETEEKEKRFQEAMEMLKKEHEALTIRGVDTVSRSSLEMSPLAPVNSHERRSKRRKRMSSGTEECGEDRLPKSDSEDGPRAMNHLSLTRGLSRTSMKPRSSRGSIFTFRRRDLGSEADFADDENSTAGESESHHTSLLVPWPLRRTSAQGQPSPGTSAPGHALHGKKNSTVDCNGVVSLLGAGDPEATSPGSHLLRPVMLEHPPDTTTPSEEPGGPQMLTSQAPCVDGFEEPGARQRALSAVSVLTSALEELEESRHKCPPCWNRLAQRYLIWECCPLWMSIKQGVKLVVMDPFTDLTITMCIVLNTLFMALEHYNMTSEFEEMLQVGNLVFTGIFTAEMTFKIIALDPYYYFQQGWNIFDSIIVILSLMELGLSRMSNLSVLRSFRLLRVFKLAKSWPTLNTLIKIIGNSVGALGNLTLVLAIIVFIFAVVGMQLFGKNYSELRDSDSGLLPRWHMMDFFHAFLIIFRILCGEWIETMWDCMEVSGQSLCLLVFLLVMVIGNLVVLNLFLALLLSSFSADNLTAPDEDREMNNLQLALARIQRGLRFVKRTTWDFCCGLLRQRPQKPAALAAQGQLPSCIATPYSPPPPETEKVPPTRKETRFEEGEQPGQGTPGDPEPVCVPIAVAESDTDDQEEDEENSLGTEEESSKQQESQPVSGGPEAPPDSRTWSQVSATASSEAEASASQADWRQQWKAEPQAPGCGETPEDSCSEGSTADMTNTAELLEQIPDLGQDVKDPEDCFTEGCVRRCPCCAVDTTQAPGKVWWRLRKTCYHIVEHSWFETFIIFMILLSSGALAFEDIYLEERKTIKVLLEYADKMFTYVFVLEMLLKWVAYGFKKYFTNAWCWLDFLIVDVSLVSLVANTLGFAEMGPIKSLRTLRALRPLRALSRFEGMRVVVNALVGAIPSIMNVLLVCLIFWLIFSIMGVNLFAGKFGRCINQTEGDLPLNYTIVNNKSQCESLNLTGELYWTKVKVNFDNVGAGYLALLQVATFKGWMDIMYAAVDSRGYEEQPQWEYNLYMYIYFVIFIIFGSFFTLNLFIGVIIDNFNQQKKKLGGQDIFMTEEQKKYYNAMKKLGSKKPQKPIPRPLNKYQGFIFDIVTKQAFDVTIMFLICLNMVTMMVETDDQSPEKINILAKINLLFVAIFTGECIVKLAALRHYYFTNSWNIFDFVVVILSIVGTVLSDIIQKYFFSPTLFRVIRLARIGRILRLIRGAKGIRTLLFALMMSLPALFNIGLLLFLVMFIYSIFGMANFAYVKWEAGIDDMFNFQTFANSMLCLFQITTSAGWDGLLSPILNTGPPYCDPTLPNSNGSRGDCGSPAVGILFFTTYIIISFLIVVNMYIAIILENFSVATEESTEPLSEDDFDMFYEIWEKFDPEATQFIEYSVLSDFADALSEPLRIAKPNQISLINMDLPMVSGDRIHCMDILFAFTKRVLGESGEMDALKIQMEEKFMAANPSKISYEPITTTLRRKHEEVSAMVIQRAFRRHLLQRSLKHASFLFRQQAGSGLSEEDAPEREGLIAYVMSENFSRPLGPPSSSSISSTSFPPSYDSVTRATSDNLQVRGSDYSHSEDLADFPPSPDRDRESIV

In the first test the target is wild-type human cardiac sodium channel, hNav1.5 (Homo sapiens, UniProt Q14524). Put plainly: Late INa screening assay (automated whole cell patch clamp, PatchXpress). It counts as cell-based. To be noted: compound at 1 μM; HEK293 cells expressing hNav1.5; late INa generated with 10 μM Tefluthrin (or 50 nM ATX II); read-out: LateINa_1 uM (percent block of late INa). In a few lines:
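Late sodium current through wild-type human hNav1.5 stably expressed in HEK293 cells (no beta subunits) was recorded by automated whole-cell patch clamp on a PatchXpress 7000A at 24-27° C. Late INa was induced with 10 μM Tefluthrin or 50 nM ATX II. Cells were stepped from −120 mV to −20 mV for 250 ms at 0.1 Hz, and percent block was normalized to current in Na-free extracellular solution.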
(In patch-clamp work, channel activity is measured electrically.)
For the compound `FC(F)(F)Oc1ccc(-c2ccc3nnc(C(F)(F)OCc4cccc(-n5cnc(C6CC6)c5)c4)n3c2)cc1` [BHN-317, 3-[{[3-(4-cyclopropyl-1H-imidazol-1-yl)benzyl]oxy}(difluoro)methyl]-6-[4-(trifluoromethoxy)phenyl][1,2,4]triazolo[4,3-a]pyridine], the inhibition at 1 µM was 46.4%. Same read-out and setting: the figure for `Fc1ccc(-c2cc(COC(F)(F)c3nnc4ccc(-c5ccc(OC(F)(F)F)cc5)cn34)no2)cc1` [BHN-318, 3-(difluoro{[5-(4-fluorophenyl)-1,2-oxazol-3-yl]methoxy}methyl)-6-[4-(trifluoromethoxy)phenyl][1,2,4]triazolo[4,3-a]pyridine] is 28.9%. The same measure, in the same setting: the result for `FC(F)(F)c1ccc(-c2ccc3nnc(C(F)(F)OCc4cc(-c5ccccc5)on4)n3c2)cn1` [BHN-319, 3-{difluoro[(5-phenyl-1,2-oxazol-3-yl)methoxy]methyl}-6-[6-(trifluoromethyl)pyridin-3-yl][1,2,4]triazolo[4,3-a]pyridine] reads 30.5%; that for `FC(F)(F)Oc1ccc(-c2ccc3nnc(C(F)(F)OCc4ccnc(N5CCCCC5)c4)n3c2)cc1` [BHN-320, 3-(difluoro{[2-(piperidin-1-yl)pyridin-4-yl]methoxy}methyl)-6-[4-(trifluoromethoxy)phenyl][1,2,4]triazolo[4,3-a]pyridine], 76.3%. On the same count and under the same terms, the result for `CC1(C)Cc2cccc(COC(F)(F)c3nnc4ccc(-c5ccc(OC(F)(F)F)cc5)cn34)c2O1` [BHN-321, 3-{[(2,2-dimethyl-2,3-dihydro-1-benzofuran-7-yl)methoxy](difluoro)methyl}-6-[4-(trifluoromethoxy)phenyl][1,2,4]triazolo[4,3-a]pyridine] reads 65.6%.

Regarding `Fc1cccc(F)c1CCOC(F)(F)c1nnc2ccc(-c3ccc(OC(F)(F)F)cc3)cn12` [BHN-322, 3-{[2-(2,6-difluorophenyl)ethoxy](difluoro)methyl}-6-[4-(trifluoromethoxy)phenyl][1,2,4]triazolo[4,3-a]pyridine], the inhibition at 1 µM worked out at 72.5%.

As for `FC(F)(F)Oc1ccc(-c2ccc3nnc(C(F)(F)OCc4noc(-c5ccccc5)n4)n3c2)cc1` [BHN-323, 3-{difluoro[(5-phenyl-1,2,4-oxadiazol-3-yl)methoxy]methyl}-6-[4-(trifluoromethoxy)phenyl][1,2,4]triazolo[4,3-a]pyridine], the inhibition at 1 µM turned out to be 73%. Still for that read-out and setting: the figure for `FC(F)(F)COc1ccc(-c2ccc3nnc(C(F)(F)OCc4cc(-c5ccccc5)on4)n3c2)cn1` [BHN-324, 3-{difluoro[(5-phenyl-1,2-oxazol-3-yl)methoxy]methyl}-6-[6-(2,2,2-trifluoroethoxy)pyridin-3-yl][1,2,4]triazolo[4,3-a]pyridine] is 46.3%; for `FC(F)(F)Oc1ccc(-c2ccc3nnc(C(F)(F)OCc4ccccc4-c4ccc(C5CC5)nc4)n3c2)cc1` [BHN-325, 3-[{[2-(6-cyclopropylpyridin-3-yl)benzyl]oxy}(difluoro)methyl]-6-[4-(trifluoromethoxy)phenyl][1,2,4]triazolo[4,3-a]pyridine] it is 68.3%; for `FC(F)(F)Oc1ccc(-c2ccc3nnc(C(F)(F)OCc4cc(-c5ccccc5Cl)on4)n3c2)cc1` [BHN-326, 3-[{[5-(2-chlorophenyl)-1,2-oxazol-3-yl]methoxy}(difluoro)methyl]-6-[4-(trifluoromethoxy)phenyl][1,2,4]triazolo[4,3-a]pyridine] it is 52.4%. Still for that read-out and setting: the figure for `FC(F)(F)Oc1ccc(-c2ccc3nnc(C(F)(F)OCc4ccccc4-c4cccnc4)n3c2)cc1` [BHN-327, 3-(difluoro{[2-(pyridin-3-yl)benzyl]oxy}methyl)-6-[4-(trifluoromethoxy)phenyl][1,2,4]triazolo[4,3-a]pyridine] is 54.2%; for `FC(F)(F)Oc1ccc(-c2ccc3nnc(C(F)(F)OCc4ccccc4-n4cccn4)n3c2)cc1` [BHN-328, 3-(difluoro{[2-(1H-pyrazol-1-yl)benzyl]oxy}methyl)-6-[4-(trifluoromethoxy)phenyl][1,2,4]triazolo[4,3-a]pyridine] it is 70.9%.

The test is the same for the next values; noted with them: compound at 10 μM; HEK293 cells expressing hNav1.5; late INa generated with 10 μM Tefluthrin (or 50 nM ATX II); read-out: LateINa_10 uM (percent block of late INa).
Consider `CCNc1nnc2ccc(-c3ccc(OC(F)(F)F)cc3)cn12` [BHN-331, N-ethyl-6-[4-(trifluoromethoxy)phenyl][1,2,4]triazolo[4,3-a]pyridin-3-amine], for which the inhibition at 10 µM turned out to be 38.2%. Same read-out and setting: the figure for `FC(F)(F)c1nnc2ccc(-c3ccc(Oc4ccccc4)cc3)cn12` [BHN-332, 6-(4-phenoxyphenyl)-3-(trifluoromethyl)[1,2,4]triazolo[4,3-a]pyridine] is 83.5%; for `Cc1nnc2ccc(-c3ccc(Oc4ccccc4)cc3)cn12` [BHN-333, 3-methyl-6-(4-phenoxyphenyl)[1,2,4]triazolo[4,3-a]pyridine] it is 61.6%.

`CCNc1nnc2ccc(-c3ccc(Oc4ccccc4)cc3)cn12` [BHN-334, N-ethyl-6-(4-phenoxyphenyl)[1,2,4]triazolo[4,3-a]pyridin-3-amine]: the inhibition at 10 µM was found to be 40.6%. In the case of `FC(F)(F)Oc1ccc(-c2ccc3nnc(C(F)(F)F)n3c2)cc1` [BHN-335, 6-[4-(trifluoromethoxy)phenyl]-3-(trifluoromethyl)[1,2,4]triazolo[4,3-a]pyridine], the inhibition at 10 µM was 87.7%. Still for that read-out and setting: the figure for `c1ccc(Oc2cccc(-c3ccc4ncnn4c3)c2)cc1` [BHN-347, 6-(3-phenoxyphenyl)[1,2,4]triazolo[1,5-a]pyridine] is 73.6%; for `Cc1nc2ccc(-c3cccc(Oc4ccccc4)c3)cn2n1` [BHN-348, 2-methyl-6-(3-phenoxyphenyl)[1,2,4]triazolo[1,5-a]pyridine] it is 65.7%. Same read-out and setting: the figure for `Cc1cc(-c2ccc(Oc3ccccc3)cc2)cn2ncnc12` [BHN-349, 8-methyl-6-(4-phenoxyphenyl)[1,2,4]triazolo[1,5-a]pyridine] is 65.1%; for `Cc1c(-c2ccc(C(F)(F)F)cc2)ccc2ncnn12` [BHN-350, 5-methyl-6-[4-(trifluoromethyl)phenyl][1,2,4]triazolo[1,5-a]pyridine] it is 44.5%.
